Measurements reported in US20250195530A1, “POLQ INHIBITORS” (ASTRAZENECA AB, priority 2022, published 2025).

Test system: DLD-1 BRCA2−/− cells
Assay: Homologous recombination synthetic lethal inhibition of proliferation, DLD-1 BRCA2-/- (Cell Titre Glo 3D)
Type: cell-based
Conditions: Homo sapiens, DLD-1, first proliferation column (c5), taken as DLD-1 BRCA2-/-; read-out: POLQ PD Prolif Lumin (converted)
Outline: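 Isogenic DLD-1 pair; BRCA2−/− seeded 3,000 cells/mL and read day 12, wt seeded 1,500 cells/mL and read day 7. 10-pt titration (top 10 μM, 3-fold), re-fed with compound day 6, 37 °C/5% CO2. CTG 3D endpoint; IC50 at 50% signal loss.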

SMILES | IC50 [nM]
Cc1ccnc(Cn2c(-c3ccc(OCC(C)(C)CO)cc3Cl)nc3c(OC4(C)CC4)ncnc32)c1 [Example T383, 3-(3-chloro-4-(6-(1-methylcyclopropoxy)-9-((4-methylpyridin-2-yl)methyl)-9H-purin-8-yl)phenoxy)-2,2-dimethylpropan-1-ol] | 126
Cc1ccnc(Cn2c(-c3ccc(N4CCCNCC4)cc3Cl)nc3c(OC4(C)CC4)ncnc32)c1 [Example T384, 8-(2-chloro-4-(1,4-diazepan-1-yl)phenyl)-6-(1-methylcyclopropoxy)-9-((4-methylpyridin-2-yl)methyl)-9H-purine] | 398
Cc1cc(OCCCN(C)C)ccc1-c1nc2c(OC3(C)CC3)ncnc2n1Cc1cc(Cl)ccn1 [Example T387, 3-(4-(9-((4-chloropyridin-2-yl)methyl)-6-(1-methylcyclopropoxy)-9H-purin-8-yl)-3-methylphenoxy)-N,N-dimethylpropan-1-amine] | 158

Same assay, conditions: Homo sapiens, DLD-1, proliferation, luminescence, taken as DLD-1 BRCA2-/-; read-out: POLQ PD Prolif Lumin (converted)

SMILES | IC50 [nM]
Cn1nc(COc2ccc(-c3nc4c(OC5(C)CC5)ncnc4n3Cc3cccc(Cl)c3)c(Cl)c2)cc1C(=O)O [Example T394, 3-((3-chloro-4-(9-(3-chlorobenzyl)-6-(1-methylcyclopropoxy)-9H-purin-8-yl)phenoxy)methyl)-1-methyl-1H-pyrazole-5-carboxylic acid] | 3160
Cc1ccnc(Cn2c(-c3ccc(C(=O)N4CCC[C@H]4C#N)cc3Cl)nc3c(OC4(C)CC4)ncnc32)c1 [Example T404, (S)-1-(3-chloro-4-(6-(1-methylcyclopropoxy)-9-((4-methylpyridin-2-yl)methyl)-9H-purin-8-yl)benzoyl)pyrrolidine-2-carbonitrile] | 1260
Cc1ccnc(Cn2c(-c3ccc(C(=O)N4CC[C@@H](C#N)C4)cc3Cl)nc3c(OC4(C)CC4)ncnc32)c1 [Example T405, (R)-1-(3-chloro-4-(6-(1-methylcyclopropoxy)-9-((4-methylpyridin-2-yl)methyl)-9H-purin-8-yl)benzoyl)pyrrolidine-3-carbonitrile] | 1260
Cc1ccnc(Cn2c(-c3ccc(C(=O)N4C[C@@H]5C[C@H]4CO5)cc3Cl)nc3c(OC4(C)CC4)ncnc32)c1 [Example T416, ((1S,4S)-2-oxa-5-azabicyclo[2.2.1]heptan-5-yl)(3-chloro-4-(6-(1-methylcyclopropoxy)-9-((4-methylpyridin-2-yl)methyl)-9H-purin-8-yl)phenyl)methanone] | 1580
Cc1ccnc(Cn2c(-c3ccc(C(=O)N4CCC[C@H](F)C4)cc3Cl)nc3c(OC4(C)CC4)ncnc32)c1 [Example T418, (S)-(3-chloro-4-(6-(1-methylcyclopropoxy)-9-((4-methylpyridin-2-yl)methyl)-9H-purin-8-yl)phenyl)(3-fluoropiperidin-1-yl)methanone] | 631
Cc1ccnc(Cn2c(-c3ccc(OCC(=O)N4CC[C@H](F)C4)cc3Cl)nc3c(OC4(C)CC4)ncnc32)c1 [Example T420, (S)-2-(3-chloro-4-(6-(1-methylcyclopropoxy)-9-((4-methylpyridin-2-yl)methyl)-9H-purin-8-yl)phenoxy)-1-(3-fluoropyrrolidin-1-yl)ethan-1-one] | 251
Cc1ccnc(Cn2c(-c3ccc(OCC(=O)NC4CC(F)C4)cc3Cl)nc3c(OC4(C)CC4)ncnc32)c1 (stereo not shown) [Example T421, 2-(3-chloro-4-(6-(1-methylcyclopropoxy)-9-((4-methylpyridin-2-yl)methyl)-9H-purin-8-yl)phenoxy)-N-(3-fluorocyclobutyl)acetamide] | 251
Cc1ccnc(Cn2c(-c3ccc(OCC(=O)N4C[C@@H](O)[C@H](F)C4)cc3Cl)nc3c(OC4(C)CC4)ncnc32)c1 [Example T423, 2-(3-chloro-4-(6-(1-methylcyclopropoxy)-9-((4-methylpyridin-2-yl)methyl)-9H-purin-8-yl)phenoxy)-1-((3R,4R)-3-fluoro-4-hydroxypyrrolidin-1-yl)ethan-1-one] | 1000
Cc1ccnc(Cn2c(-c3ccc(OC4CC5(COC5)C4)cc3Cl)nc3c(OC4(C)CC4)ncnc32)c1 [Example T426, 8-(4-((2-oxaspiro[3.3]heptan-6-yl)oxy)-2-chlorophenyl)-6-(1-methylcyclopropoxy)-9-((4-methylpyridin-2-yl)methyl)-9H-purine] | 100
Cc1ccnc(Cn2c(-c3ccc(OCC(=O)N(C)CCC#N)cc3Cl)nc3c(OC4(C)CC4)ncnc32)c1 [Example T430, 2-(3-chloro-4-(6-(1-methylcyclopropoxy)-9-((4-methylpyridin-2-yl)methyl)-9H-purin-8-yl)phenoxy)-N-(2-cyanoethyl)-N-methylacetamide] | 501
Cc1ccnc(Cn2c(-c3ccc(OCC(=O)N4CCNC(=O)C4)cc3Cl)nc3c(OC4(C)CC4)ncnc32)c1 [Example T432, 4-(2-(3-chloro-4-(6-(1-methylcyclopropoxy)-9-((4-methylpyridin-2-yl)methyl)-9H-purin-8-yl)phenoxy)acetyl)piperazin-2-one] | > 6310
CC(C)(COc1ccc(-c2nc3c(OC4(C)CC4)ncnc3n2Cc2cccc(Cl)c2)c(Cl)c1)CC(=O)O [Example T436, 4-(3-chloro-4-(9-(3-chlorobenzyl)-6-(1-methylcyclopropoxy)-9H-purin-8-yl)phenoxy)-3,3-dimethylbutanoic acid] | 200
CC1(Oc2ncnc3c2nc(-c2cccc(OCCC(C)(C)C(=O)O)c2Cl)n3Cc2cccc(Cl)c2)CC1 [Example T442, 4-(2-chloro-3-(9-(3-chlorobenzyl)-6-(1-methylcyclopropoxy)-9H-purin-8-yl)phenoxy)-2,2-dimethylbutanoic acid] | 79.4
Cc1ccnc(Cn2c(-c3ccc(CC(=O)N4CC[C@@H](O)C4)cc3Cl)nc3c(OC4(C)CC4)ncnc32)c1 [Example T458, (R)-2-(3-chloro-4-(6-(1-methylcyclopropoxy)-9-((4-methylpyridin-2-yl)methyl)-9H-purin-8-yl)phenyl)-1-(3-hydroxypyrrolidin-1-yl)ethan-1-one] | 631
Cc1ccnc(Cn2c(-c3ccc(C(=O)N4CCC[C@@H]4CO)cc3Cl)nc3c(OC4(C)CC4)ncnc32)c1 [Example T459, (R)-(3-chloro-4-(6-(1-methylcyclopropoxy)-9-((4-methylpyridin-2-yl)methyl)-9H-purin-8-yl)phenyl)(2-(hydroxymethyl)pyrrolidin-1-yl)methanone] | 1260
Cc1ccnc(Cn2c(-c3ccc(C(=O)N4CCC[C@H](O)C4)cc3Cl)nc3c(OC4(C)CC4)ncnc32)c1 [Example T461, (S)-(3-chloro-4-(6-(1-methylcyclopropoxy)-9-((4-methylpyridin-2-yl)methyl)-9H-purin-8-yl)phenyl)(3-hydroxypiperidin-1-yl)methanone] | 1260
Cc1ccnc(Cn2c(-c3ccc(C(=O)N(C)CC4(O)CC4)cc3Cl)nc3c(OC4(C)CC4)ncnc32)c1 [Example T462, 3-chloro-N-((1-hydroxycyclopropyl)methyl)-N-methyl-4-(6-(1-methylcyclopropoxy)-9-((4-methylpyridin-2-yl)methyl)-9H-purin-8-yl)benzamide] | 1580
Cc1ccnc(Cn2c(-c3ccc(C(=O)N4CC[C@@](C)(O)C4)cc3Cl)nc3c(OC4(C)CC4)ncnc32)c1 [Example T463, (R)-(3-chloro-4-(6-(1-methylcyclopropoxy)-9-((4-methylpyridin-2-yl)methyl)-9H-purin-8-yl)phenyl)(3-hydroxy-3-methylpyrrolidin-1-yl)methanone] | 1580
Cc1ccnc(Cn2c(-c3ccc(C(=O)N4CC[C@@H](CO)C4)cc3Cl)nc3c(OC4(C)CC4)ncnc32)c1 [Example T464, (R)-(3-chloro-4-(6-(1-methylcyclopropoxy)-9-((4-methylpyridin-2-yl)methyl)-9H-purin-8-yl)phenyl)(3-(hydroxymethyl)pyrrolidin-1-yl)methanone] | 1580
CO[C@H]1CCN(C(=O)c2ccc(-c3nc4c(OC5(C)CC5)ncnc4n3Cc3cc(C)ccn3)c(Cl)c2)C1 [Example T465, (S)-(3-chloro-4-(6-(1-methylcyclopropoxy)-9-((4-methylpyridin-2-yl)methyl)-9H-purin-8-yl)phenyl)(3-methoxypyrrolidin-1-yl)methanone] | 631
Cc1ccnc(Cn2c(-c3ccc(C(=O)N4CCC[C@H]4CO)cc3Cl)nc3c(OC4(C)CC4)ncnc32)c1 [Example T466, (S)-(3-chloro-4-(6-(1-methylcyclopropoxy)-9-((4-methylpyridin-2-yl)methyl)-9H-purin-8-yl)phenyl)(2-(hydroxymethyl)pyrrolidin-1-yl)methanone] | 1000
Cc1ccnc(Cn2c(-c3ccc(OCC(=O)N4CCCC4)cc3Cl)nc3c(OC4(C)CC4)ncnc32)c1 [Example T467, 2-(3-chloro-4-(6-(1-methylcyclopropoxy)-9-((4-methylpyridin-2-yl)methyl)-9H-purin-8-yl)phenoxy)-1-(pyrrolidin-1-yl)ethan-1-one] | 316
Cc1ccnc(Cn2c(-c3ccc(OCCN4CCCC4=O)cc3Cl)nc3c(OC4(C)CC4)ncnc32)c1 [Example T469, 1-(2-(3-chloro-4-(6-(1-methylcyclopropoxy)-9-((4-methylpyridin-2-yl)methyl)-9H-purin-8-yl)phenoxy)ethyl)pyrrolidin-2-one] | 158
CCC(=O)N1CC(Oc2ccc(-c3nc4c(OC5(C)CC5)ncnc4n3Cc3cc(C)ccn3)c(Cl)c2)C1 [Example T471, 1-(3-(3-chloro-4-(6-(1-methylcyclopropoxy)-9-((4-methylpyridin-2-yl)methyl)-9H-purin-8-yl)phenoxy)azetidin-1-yl)propan-1-one] | 158
CC(=O)N1CC[C@@H](Oc2ccc(-c3nc4c(OC5(C)CC5)ncnc4n3Cc3cc(C)ccn3)c(Cl)c2)C1 [Example T472, (R)-1-(3-(3-chloro-4-(6-(1-methylcyclopropoxy)-9-((4-methylpyridin-2-yl)methyl)-9H-purin-8-yl)phenoxy)pyrrolidin-1-yl)ethan-1-one] | 200
